Our source for the viability, T/C and IC50 values is PubChem BioAssay AID2060617 (Molecular Pharmacology Branch, DTP, NCI, 2025).

Where “and” joins values, the source holds several entries; their conditions need not be identical. Equal values may be shown once.

For this assay, the system named is 485368-065-R4-J2-PDC spheroids with HUVEC/MSC, viability. As to the kind of experiment: Anticancer human tumor 485368-065-R4-J2-PDC patient-derived pancreatic carcinoma cell line growth inhibition [CLK]. Conditions: for viability, T/C: stronger effect = lower value. In a few lines: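 Multi-cell-type spheroids combined patient-derived tumor cells with HUVEC endothelial cells and human mesenchymal stem cells. Paired agents were dosed in half-log steps down from about clinical Cmax, or from 10 microM where Cmax was unknown.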

[1] abbreviates: curve of first compound, second compound 0.0316 µM.
Where [2] appears, read: curve of first compound, second compound 0.1 µM.
The mark [3] stands for this setting: curve of first compound, second compound 0.316 µM.
Setting [4] is: curve of first compound, second compound 1 µM.
[5] abbreviates: curve of first compound, second compound 3.16 µM.
Where [6] appears, read: curve of first compound, second compound 10 µM.
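Note: spheroids exposed to compounds for seven days.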
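Throughout, for viability, T/C: 100% = DMSO vehicle control wells.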

Broadly, the viability, T/C is the ratio of treated to control. A word on the IC50: it is the concentration that gives 50% inhibition. Take `CCN1CCN(Cc2ccc(Nc3ncc(F)c(-c4cc(F)c5nc(C)n(C(C)C)c5c4)n3)nc2)CC1`: the viability, T/C (compound 0.00316 µM) was 91.1% and 106%; the viability, T/C (compound 0.01 µM) is 114% and 96.1%; the viability, T/C (compound 0.0316 µM) is 115% and 116%; the viability, T/C (compound 0.1 µM) was 140% and 113%; the viability, T/C (compound 0.316 µM) was 128% and 129%; the viability, T/C (compound 1 µM) is 117% and 116%. Besides, the IC50 (curve of compound) was more than 1000 nM.

For the molecule `COc1c(OCCCN2CCOCC2)ccc2c3n(c(=NC(=O)c4cnc(N)nc4)nc12)CCN3`, the viability, T/C (compound 0.00316 µM) is 97% and 92.1%; the viability, T/C (compound 0.01 µM) is 101% and 121%; the viability, T/C (compound 0.0316 µM) was 109% and 111%; the viability, T/C (compound 0.1 µM) was 77.3% and 65.7%; the viability, T/C (compound 0.316 µM) was 50.9% and 52%; the viability, T/C (compound 1 µM) is 41.1% and 39.6%. Further, the IC50 (curve of compound) was 281 nM and 248 nM.

Consider `CCN1CCN(Cc2ccc(Nc3ncc(F)c(-c4cc(F)c5nc(C)n(C(C)C)c5c4)n3)nc2)CC1` + CNC(=O)c1ccc(Nc2nc(OC3CCCC3)c3c(-c4ccc5nc(C)oc5c4)c[nH]c3n2)c(OC)c1, for which the IC50 under setting [1] was more than 1000 nM; the IC50 under setting [2] was more than 1000 nM; the IC50 under setting [3] is more than 1000 nM; the half-maximal inhibitory concentration (IC50) under setting [4] was more than 1000 nM; the IC50 under setting [5] was more than 1000 nM; the IC50 under setting [6] was more than 1000 nM. Besides, the viability, T/C (second compound 0.0316 µM, first compound 0.00316 µM) was 95.9%; the viability, T/C (second compound 0.0316 µM, first compound 0.01 µM) was 106%; the viability, T/C (second compound 0.0316 µM, first compound 0.0316 µM) is 103%; the viability, T/C (second compound 0.0316 µM, first compound 0.1 µM) was 135%; the viability, T/C (second compound 0.0316 µM, first compound 0.316 µM) is 134%; the viability, T/C (second compound 0.0316 µM, first compound 1 µM) is 117%. The viability, T/C by setting is: (second compound 0.1 µM, first compound 0.00316 µM) 89.4%; (second compound 0.1 µM, first compound 0.01 µM) 92%; (second compound 0.1 µM, first compound 0.0316 µM) 93%; (second compound 0.1 µM, first compound 0.1 µM) 95.1%; (second compound 0.1 µM, first compound 0.316 µM) 109%; (second compound 0.1 µM, first compound 1 µM) 100%. Besides, the viability, T/C reads like this: (second compound 0.316 µM, first compound 0.00316 µM) 81.5%; (second compound 0.316 µM, first compound 0.01 µM) 81%; (second compound 0.316 µM, first compound 0.0316 µM) 75.2%; (second compound 0.316 µM, first compound 0.1 µM) 66.5%; (second compound 0.316 µM, first compound 0.316 µM) 84.5%; (second compound 0.316 µM, first compound 1 µM) 72.9%. Moreover, the viability, T/C reads like this: (second compound 1 µM, first compound 0.00316 µM) 71.8%; (second compound 1 µM, first compound 0.01 µM) 77.3%; (second compound 1 µM, first compound 0.0316 µM) 82.8%; (second compound 1 µM, first compound 0.1 µM) 75.7%; (second compound 1 µM, first compound 0.316 µM) 75.4%; (second compound 1 µM, first compound 1 µM) 73.2%. In addition, the viability, T/C reads like this: (second compound 3.16 µM, first compound 0.00316 µM) 72.7%; (second compound 3.16 µM, first compound 0.01 µM) 71.7%; (second compound 3.16 µM, first compound 0.0316 µM) 67.1%; (second compound 3.16 µM, first compound 0.1 µM) 63.1%; (second compound 3.16 µM, first compound 0.316 µM) 60.2%; (second compound 3.16 µM, first compound 1 µM) 63.2%. Further, the viability, T/C runs as follows: (second compound 10 µM, first compound 0.00316 µM) 72.1%; (second compound 10 µM, first compound 0.01 µM) 65.1%; (second compound 10 µM, first compound 0.0316 µM) 66%; (second compound 10 µM, first compound 0.1 µM) 60.7%; (second compound 10 µM, first compound 0.316 µM) 60.4%; (second compound 10 µM, first compound 1 µM) 56.3%.

In the case of `NC(=O)C(=Cn1cnc(-c2cc(C(F)(F)F)cc(C(F)(F)F)c2)n1)c1cncnc1` + CNC(=O)c1ccc(Nc2nc(OC3CCCC3)c3c(-c4ccc5nc(C)oc5c4)c[nH]c3n2)c(OC)c1, the IC50 reads like this: under setting [1], more than 3000 nM; under setting [2], more than 3000 nM; under setting [3], more than 3000 nM; under setting [4], more than 3000 nM; under setting [5], more than 3000 nM; under setting [6], 2590 nM. Besides, the viability, T/C was 95% (second compound 0.0316 µM, first compound 0.00949 µM); 130% (second compound 0.0316 µM, first compound 0.03 µM); 179% (second compound 0.0316 µM, first compound 0.0949 µM); 195% (second compound 0.0316 µM, first compound 0.3 µM); 176% (second compound 0.0316 µM, first compound 0.949 µM); 128% (second compound 0.0316 µM, first compound 3 µM). Besides, the viability, T/C by setting is: (second compound 0.1 µM, first compound 0.00949 µM) 96.4%; (second compound 0.1 µM, first compound 0.03 µM) 108%; (second compound 0.1 µM, first compound 0.0949 µM) 173%; (second compound 0.1 µM, first compound 0.3 µM) 177%; (second compound 0.1 µM, first compound 0.949 µM) 171%; (second compound 0.1 µM, first compound 3 µM) 97.5%. Besides, the viability, T/C (second compound 0.316 µM, first compound 0.00949 µM) is 98.1%; the viability, T/C (second compound 0.316 µM, first compound 0.03 µM) was 116%; the viability, T/C (second compound 0.316 µM, first compound 0.0949 µM) was 160%; the viability, T/C (second compound 0.316 µM, first compound 0.3 µM) is 154%; the viability, T/C (second compound 0.316 µM, first compound 0.949 µM) is 139%; the viability, T/C (second compound 0.316 µM, first compound 3 µM) is 74.3%. Further, the viability, T/C was 82.2% (second compound 1 µM, first compound 0.00949 µM); 114% (second compound 1 µM, first compound 0.03 µM); 141% (second compound 1 µM, first compound 0.0949 µM); 132% (second compound 1 µM, first compound 0.3 µM); 99.4% (second compound 1 µM, first compound 0.949 µM); 62.5% (second compound 1 µM, first compound 3 µM). Further, the viability, T/C by setting is: (second compound 3.16 µM, first compound 0.00949 µM) 80.3%; (second compound 3.16 µM, first compound 0.03 µM) 114%; (second compound 3.16 µM, first compound 0.0949 µM) 123%; (second compound 3.16 µM, first compound 0.3 µM) 113%; (second compound 3.16 µM, first compound 0.949 µM) 87.6%; (second compound 3.16 µM, first compound 3 µM) 59.3%. Moreover, the viability, T/C (second compound 10 µM, first compound 0.00949 µM) was 69.4%; the viability, T/C (second compound 10 µM, first compound 0.03 µM) is 98.3%; the viability, T/C (second compound 10 µM, first compound 0.0949 µM) is 124%; the viability, T/C (second compound 10 µM, first compound 0.3 µM) is 98.5%; the viability, T/C (second compound 10 µM, first compound 0.949 µM) was 80.8%; the viability, T/C (second compound 10 µM, first compound 3 µM) is 45.4%.

Consider `CCCS(=O)(=O)Nc1ccc(F)c(C(=O)c2c[nH]c3ncc(-c4ccc(Cl)cc4)cc23)c1F`, for which the viability, T/C by setting is: (compound 0.0316 µM) 103% and 95.3%; (compound 0.1 µM) 109% and 96.8%; (compound 0.316 µM) 95.8% and 90.5%; (compound 1 µM) 93.7% and 90.6%; (compound 3.16 µM) 91.3% and 80.7%; (compound 10 µM) 123% and 108%. Also, the concentration for half-maximal inhibition (IC50) (curve of compound) was more than 10000 nM.

With `COc1cccc2c1C(=O)c1c(O)c3c(c(O)c1C2=O)CC(O)(C(=O)CO)CC3OC1CC(N)C(O)C(C)O1` (configuration not stated), the viability, T/C reads like this: (compound 0.0316 µM) 98.8% and 100%; (compound 0.1 µM) 102% and 91.6%; (compound 0.316 µM) 67.6% and 66.2%; (compound 1 µM) 35% and 37.2%; (compound 3.16 µM) 7.33% and 9.65%; (compound 10 µM) 19.4% and 24.4%. Also, the IC50 (curve of compound) is 574 nM and 566 nM.
